# In the kinase profiling compilation of Christmann-Franck et al. (2016):
# Key:
# Test in all cases: radiometric filter-binding kinase assay, Kinase HotSpot
# Conditions in all cases: compound 0.5 µM; ATP 10 µM
# STK38 (human) = STK38 (human) (UniProt Q15208)
# MAP3K3 (human) = MAP3K3 (human) (UniProt Q99759)
# NLK (human) = NLK (human) (UniProt Q9UBE8)
# PAK1 (human) = PAK1 (human) (UniProt Q13153)
# PLK2 (human) = PLK2 (human) (UniProt Q9NYY3)
# MAP3K5 (human) = MAP3K5 (human) (UniProt Q99683)
# MAP3K9 (human) = MAP3K9 (human) (UniProt P80192)
# TEK (human) = TEK (human) (UniProt Q02763)
# CSNK1E (human) = CSNK1E (human) (UniProt P49674)
# SRPK2 (human) = SRPK2 (human) (UniProt P78362)
# Sequence of SRPK2 (human) (P78362 whole entry, looked up): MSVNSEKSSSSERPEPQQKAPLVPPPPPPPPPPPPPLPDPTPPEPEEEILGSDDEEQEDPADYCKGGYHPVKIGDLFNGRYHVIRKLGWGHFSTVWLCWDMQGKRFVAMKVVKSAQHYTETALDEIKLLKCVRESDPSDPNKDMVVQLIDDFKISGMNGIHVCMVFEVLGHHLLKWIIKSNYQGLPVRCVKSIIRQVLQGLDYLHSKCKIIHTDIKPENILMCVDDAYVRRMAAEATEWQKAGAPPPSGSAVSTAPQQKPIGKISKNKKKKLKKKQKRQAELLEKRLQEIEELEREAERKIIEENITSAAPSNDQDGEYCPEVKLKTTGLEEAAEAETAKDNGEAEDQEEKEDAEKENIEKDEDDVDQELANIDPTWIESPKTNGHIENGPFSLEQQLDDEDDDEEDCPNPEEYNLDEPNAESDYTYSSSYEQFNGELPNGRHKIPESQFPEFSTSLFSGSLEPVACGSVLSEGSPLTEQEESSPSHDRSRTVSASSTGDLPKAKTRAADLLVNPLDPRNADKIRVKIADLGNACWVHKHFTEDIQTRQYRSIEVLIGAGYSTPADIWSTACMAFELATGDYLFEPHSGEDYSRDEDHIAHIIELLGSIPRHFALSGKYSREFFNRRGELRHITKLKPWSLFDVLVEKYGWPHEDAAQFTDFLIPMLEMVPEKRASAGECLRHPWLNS
# PRKCE (human) = PRKCE (human) (UniProt Q02156)
# SGK3 (human) = SGK3 (human) (UniProt Q96BR1)
# MAPKAPK2 (human) = MAPKAPK2 (human) (UniProt P49137)
# TXK (human) = TXK (human) (UniProt P42681)
# FLT3 (human) = FLT3 (human) (UniProt P36888)
# CLK1 (human) = CLK1 (human) (UniProt P49759)
# HIPK4 (human) = HIPK4 (human) (UniProt Q8NE63)
# CAMK1G (human) = CAMK1G (human) (UniProt Q96NX5)
# IGF1R (human) = IGF1R (human) (UniProt P08069)
# RPS6KB2 (human) = RPS6KB2 (human) (UniProt Q9UBS0)
# STK33 (human) = STK33 (human) (UniProt Q9BYT3)
# YES1 (human) = YES1 (human) (UniProt P07947)
# CDK9 CCNT1 (human) = CDK9 CCNT1 (human) (UniProt P50750+O60563)
# AURKB (human) = AURKB (human) (UniProt Q96GD4)
# MAP3K14 (human) = MAP3K14 (human) (UniProt Q99558)
# PLK3 (human) = PLK3 (human) (UniProt Q9H4B4)
# NTRK2 (human) = NTRK2 (human) (UniProt Q16620)
# ZAP70 (human) = ZAP70 (human) (UniProt P43403)
# Sequence of ZAP70 (human) (P43403 whole entry, looked up): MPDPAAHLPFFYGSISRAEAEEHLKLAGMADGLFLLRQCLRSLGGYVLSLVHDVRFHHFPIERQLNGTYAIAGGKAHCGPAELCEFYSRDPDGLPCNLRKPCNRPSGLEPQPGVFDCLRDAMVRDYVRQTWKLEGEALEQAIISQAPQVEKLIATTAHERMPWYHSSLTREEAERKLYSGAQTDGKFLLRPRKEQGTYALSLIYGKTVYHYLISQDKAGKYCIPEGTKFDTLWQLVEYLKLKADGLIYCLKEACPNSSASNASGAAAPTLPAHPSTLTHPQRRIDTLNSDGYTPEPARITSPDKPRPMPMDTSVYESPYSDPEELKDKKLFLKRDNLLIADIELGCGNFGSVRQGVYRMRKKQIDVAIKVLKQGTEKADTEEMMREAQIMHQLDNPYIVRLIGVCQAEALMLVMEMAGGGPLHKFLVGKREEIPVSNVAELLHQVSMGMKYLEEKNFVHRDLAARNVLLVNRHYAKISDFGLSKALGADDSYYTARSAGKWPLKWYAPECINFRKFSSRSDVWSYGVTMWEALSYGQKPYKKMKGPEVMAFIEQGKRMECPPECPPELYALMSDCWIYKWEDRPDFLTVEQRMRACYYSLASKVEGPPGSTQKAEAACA
# ITK (human) = ITK (human) (UniProt Q08881)
# STK4 (human) = STK4 (human) (UniProt Q13043)
# CDK9 CCNK (human) = CDK9 CCNK (human) (UniProt O75909+P50750)
# Sequence of CDK9 CCNK (human) (O75909 whole entry, looked up): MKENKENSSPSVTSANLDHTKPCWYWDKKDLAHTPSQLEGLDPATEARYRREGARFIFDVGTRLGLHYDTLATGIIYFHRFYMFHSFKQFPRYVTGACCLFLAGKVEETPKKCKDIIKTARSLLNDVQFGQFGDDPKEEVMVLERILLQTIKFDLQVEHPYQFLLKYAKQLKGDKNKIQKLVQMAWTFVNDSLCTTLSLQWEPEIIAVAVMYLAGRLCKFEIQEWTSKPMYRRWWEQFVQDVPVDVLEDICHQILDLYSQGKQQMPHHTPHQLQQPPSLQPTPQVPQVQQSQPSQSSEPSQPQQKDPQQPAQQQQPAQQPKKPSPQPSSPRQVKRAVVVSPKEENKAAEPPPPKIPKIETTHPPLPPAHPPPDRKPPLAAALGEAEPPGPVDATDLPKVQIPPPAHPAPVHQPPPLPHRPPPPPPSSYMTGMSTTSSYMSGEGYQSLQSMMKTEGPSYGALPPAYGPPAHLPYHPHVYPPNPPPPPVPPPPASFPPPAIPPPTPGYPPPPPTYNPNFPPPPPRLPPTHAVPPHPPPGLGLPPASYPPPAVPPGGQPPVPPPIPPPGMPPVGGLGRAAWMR
# Sequence of CDK9 CCNK (human) (P50750 whole entry, looked up): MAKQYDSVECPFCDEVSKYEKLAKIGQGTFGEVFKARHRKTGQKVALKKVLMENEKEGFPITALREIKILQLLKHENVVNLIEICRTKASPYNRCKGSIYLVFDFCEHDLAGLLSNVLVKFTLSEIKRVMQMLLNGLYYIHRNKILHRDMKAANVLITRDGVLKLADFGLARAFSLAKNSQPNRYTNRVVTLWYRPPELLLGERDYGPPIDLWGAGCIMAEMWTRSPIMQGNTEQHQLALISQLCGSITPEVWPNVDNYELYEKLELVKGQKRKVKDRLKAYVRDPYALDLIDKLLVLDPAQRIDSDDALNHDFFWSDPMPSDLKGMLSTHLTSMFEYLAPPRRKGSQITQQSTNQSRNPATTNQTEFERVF
# WNK2 (human) = WNK2 (human) (UniProt Q9Y3S1)
# GSG2 (human) = GSG2 (human) (UniProt Q8TF76)
# PTK2B (human) = PTK2B (human) (UniProt Q14289)
# DAPK1 (human) = DAPK1 (human) (UniProt P53355)
# SYK (human) = SYK (human) (UniProt P43405)
# HIPK2 (human) = HIPK2 (human) (UniProt Q9H2X6)
# Sequence of HIPK2 (human) (Q9H2X6 whole entry, looked up): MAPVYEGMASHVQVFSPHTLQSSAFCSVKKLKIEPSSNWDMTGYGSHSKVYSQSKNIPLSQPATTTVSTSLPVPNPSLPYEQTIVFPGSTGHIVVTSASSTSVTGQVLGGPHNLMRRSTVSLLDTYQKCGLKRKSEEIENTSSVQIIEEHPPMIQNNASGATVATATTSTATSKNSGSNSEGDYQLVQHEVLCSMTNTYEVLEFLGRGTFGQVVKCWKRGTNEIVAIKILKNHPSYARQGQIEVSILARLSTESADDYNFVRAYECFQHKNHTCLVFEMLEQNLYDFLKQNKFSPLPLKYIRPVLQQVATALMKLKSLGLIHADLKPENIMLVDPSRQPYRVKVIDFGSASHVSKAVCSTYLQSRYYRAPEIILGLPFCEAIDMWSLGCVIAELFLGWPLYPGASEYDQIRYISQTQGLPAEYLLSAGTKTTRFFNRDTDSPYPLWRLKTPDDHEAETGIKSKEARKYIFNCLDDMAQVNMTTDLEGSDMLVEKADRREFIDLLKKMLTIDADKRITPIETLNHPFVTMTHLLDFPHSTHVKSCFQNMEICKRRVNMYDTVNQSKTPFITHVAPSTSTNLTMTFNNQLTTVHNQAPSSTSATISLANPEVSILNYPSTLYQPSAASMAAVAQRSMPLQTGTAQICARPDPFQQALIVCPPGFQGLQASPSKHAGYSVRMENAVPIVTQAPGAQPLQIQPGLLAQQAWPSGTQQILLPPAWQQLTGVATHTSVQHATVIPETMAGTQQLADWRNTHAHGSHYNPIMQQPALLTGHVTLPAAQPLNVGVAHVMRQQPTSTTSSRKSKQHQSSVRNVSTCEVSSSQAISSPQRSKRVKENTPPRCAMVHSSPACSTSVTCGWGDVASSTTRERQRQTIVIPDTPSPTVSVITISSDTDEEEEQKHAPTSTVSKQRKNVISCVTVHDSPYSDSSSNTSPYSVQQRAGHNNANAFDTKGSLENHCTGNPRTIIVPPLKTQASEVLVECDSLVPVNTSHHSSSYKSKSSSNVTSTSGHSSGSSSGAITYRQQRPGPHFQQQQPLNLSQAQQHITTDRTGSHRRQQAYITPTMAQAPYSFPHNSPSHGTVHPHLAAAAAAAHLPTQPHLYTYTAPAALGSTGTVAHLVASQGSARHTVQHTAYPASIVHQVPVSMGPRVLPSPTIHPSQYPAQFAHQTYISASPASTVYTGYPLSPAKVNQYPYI
# MYO3B (human) = MYO3B (human) (UniProt Q8WXR4)
# Sequence of MYO3B (human) (Q8WXR4 whole entry, looked up): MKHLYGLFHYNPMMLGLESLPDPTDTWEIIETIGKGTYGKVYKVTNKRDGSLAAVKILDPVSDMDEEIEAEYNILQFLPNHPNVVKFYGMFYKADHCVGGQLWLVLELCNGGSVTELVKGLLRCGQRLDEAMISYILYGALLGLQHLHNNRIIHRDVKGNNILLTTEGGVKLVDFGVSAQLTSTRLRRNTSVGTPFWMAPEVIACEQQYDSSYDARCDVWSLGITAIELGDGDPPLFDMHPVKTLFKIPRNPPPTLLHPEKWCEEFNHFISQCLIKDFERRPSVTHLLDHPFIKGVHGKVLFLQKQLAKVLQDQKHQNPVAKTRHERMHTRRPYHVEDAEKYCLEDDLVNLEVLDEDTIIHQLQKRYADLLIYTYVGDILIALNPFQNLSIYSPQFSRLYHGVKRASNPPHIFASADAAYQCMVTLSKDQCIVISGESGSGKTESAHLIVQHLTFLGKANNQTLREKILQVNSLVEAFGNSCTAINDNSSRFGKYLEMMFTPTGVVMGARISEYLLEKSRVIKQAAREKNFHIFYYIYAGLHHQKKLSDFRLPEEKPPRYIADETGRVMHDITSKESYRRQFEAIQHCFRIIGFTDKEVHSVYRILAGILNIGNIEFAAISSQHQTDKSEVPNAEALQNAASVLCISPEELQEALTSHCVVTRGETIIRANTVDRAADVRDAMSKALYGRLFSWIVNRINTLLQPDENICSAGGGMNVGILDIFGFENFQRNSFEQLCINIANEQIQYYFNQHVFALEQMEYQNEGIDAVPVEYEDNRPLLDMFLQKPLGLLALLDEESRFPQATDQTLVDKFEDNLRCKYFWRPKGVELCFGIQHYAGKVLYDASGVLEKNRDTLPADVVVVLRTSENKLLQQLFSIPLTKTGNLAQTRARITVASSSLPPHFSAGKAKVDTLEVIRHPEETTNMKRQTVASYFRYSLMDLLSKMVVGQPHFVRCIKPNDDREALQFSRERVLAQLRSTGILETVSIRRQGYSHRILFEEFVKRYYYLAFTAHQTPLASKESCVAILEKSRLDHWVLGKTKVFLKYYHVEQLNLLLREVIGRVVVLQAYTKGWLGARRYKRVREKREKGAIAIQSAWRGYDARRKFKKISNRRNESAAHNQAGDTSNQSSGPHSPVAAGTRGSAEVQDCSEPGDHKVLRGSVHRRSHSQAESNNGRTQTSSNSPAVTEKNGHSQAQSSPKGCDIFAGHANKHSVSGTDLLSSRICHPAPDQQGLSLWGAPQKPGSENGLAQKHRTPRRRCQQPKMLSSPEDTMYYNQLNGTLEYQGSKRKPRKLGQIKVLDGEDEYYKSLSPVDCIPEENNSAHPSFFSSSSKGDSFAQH
# FLT1 (human) = FLT1 (human) (UniProt P17948)
# [1] = biological target: TYK2 JH1 catalytic (human) (UniProt P29597)
# TAOK3 (human) = TAOK3 (human) (UniProt Q9H2K8)
# AXL (human) = AXL (human) (UniProt P30530)
smiles,measurement,setting,value
O=C1Nc2ccc(Cl)cc2/C1=C/c1cc(Cl)c(O)c(Cl)c1,residual activity,STK38 (human),85.4%
same,residual activity,MAP3K3 (human),101%
same,residual activity,NLK (human),38.9%
same,residual activity,PAK1 (human),97.2%
same,residual activity,PLK2 (human),95.4%
same,residual activity,MAP3K5 (human),106%
same,residual activity,MAP3K9 (human),102%
same,residual activity,TEK (human),93%
same,residual activity,CSNK1E (human),66.6%
same,residual activity,SRPK2 (human),95.2%
same,residual activity,PRKCE (human),100%
same,residual activity,SGK3 (human),98.6%
same,residual activity,MAPKAPK2 (human),100%
same,residual activity,TXK (human),86.6%
same,residual activity,FLT3 (human),26.5%
same,residual activity,CLK1 (human),85%
same,residual activity,HIPK4 (human),88.4%
same,residual activity,CAMK1G (human),96.6%
same,residual activity,IGF1R (human),98.3%
same,residual activity,RPS6KB2 (human),98.2%
same,residual activity,STK33 (human),85.1%
same,residual activity,YES1 (human),78.3%
same,residual activity,CDK9 CCNT1 (human),95.2%
same,residual activity,AURKB (human),9.19%
same,residual activity,MAP3K14 (human),111%
same,residual activity,PLK3 (human),98.2%
same,residual activity,NTRK2 (human),61.1%
same,residual activity,ZAP70 (human),95%
same,residual activity,ITK (human),91.8%
same,residual activity,STK4 (human),32.5%
same,residual activity,CDK9 CCNK (human),79.4%
same,residual activity,WNK2 (human),115%
same,residual activity,GSG2 (human),8.65%
same,residual activity,PTK2B (human),96.7%
same,residual activity,DAPK1 (human),90%
same,residual activity,SYK (human),93.3%
same,residual activity,HIPK2 (human),122%
same,residual activity,MYO3B (human),17.4%
same,residual activity,FLT1 (human),85%
same,residual activity,[1],26.9%
same,residual activity,TAOK3 (human),50.6%
same,residual activity,AXL (human),106%
CCCC(=O)Oc1ccc2[nH]c(C(=O)c3cc4ccccc4[nH]3)cc2c1,residual activity,STK38 (human),96.9%
same,residual activity,MAP3K3 (human),91.9%
same,residual activity,NLK (human),106%
same,residual activity,PAK1 (human),95.8%
same,residual activity,PLK2 (human),101%
same,residual activity,MAP3K5 (human),103%
same,residual activity,MAP3K9 (human),97.7%
same,residual activity,TEK (human),100%
same,residual activity,CSNK1E (human),97.4%
same,residual activity,SRPK2 (human),89.4%
same,residual activity,PRKCE (human),91%
same,residual activity,SGK3 (human),102%
same,residual activity,MAPKAPK2 (human),92.4%
same,residual activity,TXK (human),99.1%
same,residual activity,FLT3 (human),79.9%
same,residual activity,CLK1 (human),99.3%
same,residual activity,HIPK4 (human),86.3%
same,residual activity,CAMK1G (human),100%
same,residual activity,IGF1R (human),88.3%
same,residual activity,RPS6KB2 (human),102%
same,residual activity,STK33 (human),92.9%
same,residual activity,YES1 (human),84.4%
same,residual activity,CDK9 CCNT1 (human),105%
same,residual activity,AURKB (human),97.1%
same,residual activity,MAP3K14 (human),109%
same,residual activity,PLK3 (human),98.4%
same,residual activity,NTRK2 (human),89.8%
same,residual activity,ZAP70 (human),100%
same,residual activity,ITK (human),82%
same,residual activity,STK4 (human),96.8%
same,residual activity,CDK9 CCNK (human),104%
same,residual activity,WNK2 (human),113%
same,residual activity,GSG2 (human),99.2%
same,residual activity,PTK2B (human),87.6%
same,residual activity,DAPK1 (human),85.8%
same,residual activity,SYK (human),93.9%
same,residual activity,HIPK2 (human),92.1%
same,residual activity,MYO3B (human),98.6%
same,residual activity,FLT1 (human),89.7%
same,residual activity,[1],90.7%
same,residual activity,TAOK3 (human),86.7%
same,residual activity,AXL (human),103%
